Our source for the IC50 values is US20240294551A1 (AMGEN INC., priority 2022, published 2024).

Where two headings read alike, the source gives them in different places.

Assay [1] addresses His-tagged KRAS G12D protein (Homo sapiens (Human), UniProt P01116, G12D). Briefly: KRAS G12D TR-FRET Assay. The format is binding. In short, it runs like this: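 His-tagged KRAS G12D (diluted to 20 nM in pH 7.4 HEPES buffer with 10 mM MgCl2 and 10 μM GDP) was preincubated with titrated compound for 30 min at room temperature. Biotinylated KRPep-2d peptide (diluted to 20 nM) was then added for 1 h, and displacement was monitored by TR-FRET.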

The target of assay [2] is GDP-bound KRAS protein (aa 1-169), containing both G12D and C118A amino acid substitutions (Homo sapiens (Human), UniProt P01116, C118A/G12D). Briefly: KRAS G12D Coupled Nucleotide Exchange Assay. The format is biochemical.
In assay [3] the test system is Phosphorylation of ERK1/2 in AsPC-1 cells. Briefly: Phospho-ERK1/2 MSD Assay. In kind it is cell-based, human. The conditions noted are these: Homo sapiens, ASPC1, 2 h. In short, it runs like this: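 Read-out: MSD electrochemiluminescent detection of phosphorylated ERK1/2 in whole-cell lysates, fitted to a 4-parameter logistic curve for IC50. Prior to lysis, AsPC-1 cells (25,000 per well) received a 2 h compound dose-response at 37 °C.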

In another assay the test system is AsPC-1 cells. Briefly: AsPC-1 CTG Assay (CellTiter-Glo cell viability). The conditions noted are these: Homo sapiens, ASPC1, 72 h, first value of the cell, read-out: G12D/C/V Cell Proliferation CTG (72 h) AsPC-1. The format is cell-based, human. In short, it runs like this:
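Human pancreatic AsPC-1 or colon SW620 cells in RPMI 1640 with 10% FBS, seeded overnight, then exposed to serially diluted compound for 72 h at 37 °C. CellTiter-Glo luminescence normalized to DMSO control; IC50 from a 4-parameter logistic model.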

Where [4] appears, read: read-out: KRAS G12D Binding IC50.
The mark [5] stands for this setting: read-out: KRAS G12D Coupled Exchange IC50.
Setting [6] is: read-out: 2 h p-ERK (AsPC-1 cells), IC50.
The mark [7] stands for this setting: TR-FRET, read-out: KRAS G12D Binding.
Where [8] appears, read: 2 hours compound pre-incubation, read-out: KRAS G12D Coupled Exchange.
Setting [9] is: read-out: 2 h p-ERK (AsPC-1 cells).

Sequence of His-tagged KRAS G12D protein (P01116 other isoform, or with tags, fused parts or gaps G12D): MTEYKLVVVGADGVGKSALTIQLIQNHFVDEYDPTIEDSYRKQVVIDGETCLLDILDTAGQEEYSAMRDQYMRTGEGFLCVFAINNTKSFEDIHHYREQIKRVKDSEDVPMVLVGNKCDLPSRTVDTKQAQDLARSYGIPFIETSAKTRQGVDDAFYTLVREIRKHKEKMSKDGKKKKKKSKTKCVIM
Sequence of GDP-bound KRAS protein (aa 1-169), containing both G12D and C118A amino acid substitutions (P01116 other isoform, or with tags, fused parts or gaps G12D/C118A): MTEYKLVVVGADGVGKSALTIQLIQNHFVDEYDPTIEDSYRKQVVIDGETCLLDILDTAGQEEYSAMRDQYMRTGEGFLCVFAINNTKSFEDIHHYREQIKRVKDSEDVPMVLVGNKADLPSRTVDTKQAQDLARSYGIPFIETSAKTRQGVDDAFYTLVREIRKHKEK

Take `O=C1OCCc2c(Cl)cc3[nH]ncc3c2-c2cc3nc(OC[C@@]45CCCN4C[C@H](F)C5)nc(c3cn2)N2CCC[C@]3(C2)C[C@H](C3)O1` [Example 343, (1R,3S)-10-chloro-24-(((2R,7aS)-2-fluorotetrahydro-1H-pyrrolo[1,2-a]pyrrol-7a(5H)-yl)methoxy)-4,6-dioxa-13,14,19,23,25,27-hexaazaheptacyclo[25.3.1.1~1,3~.1~18,22~.0~9,17~.0~12,16~.0~21,26~]tritriaconta-9,11,14,16,18(32),19,21,23,25-nonaen-5-one]: the IC50 in assay [1] (setting [4]) came to 22 nM; in assay [2] (setting [5]), 13 nM; in assay [3] (setting [6]), 45.2 nM; with AsPC-1 cells (AsPC-1, 72 h), 953 nM.
In the case of `CN1CCC[C@H]1COc1nc2c3cnc(c(F)c3n1)-c1cc(O)cc3ccc(F)c(c13)CCOC(=O)O[C@]1(C)COCCN2C1` [Example 344, (16S)-23,32-difluoro-28-hydroxy-16-methyl-8-(((2S)-1-methyl-2-pyrrolidinyl)methoxy)-14,17,19-trioxa-3,7,9,11-tetraazahexacyclo[20.7.1.1~2,6~.1~11,16~.0~5,10~.0~26,30~]dotriaconta-1(30),2(32),3,5,7,9,22,24,26,28-decaen-18-one], the IC50 in assay [1] (setting [4]) stood at 8 nM; in assay [2] (setting [5]), 3 nM; in assay [3] (setting [6]), 5.7 nM; with AsPC-1 cells (AsPC-1, 72 h), 156 nM.
Regarding `C[C@@]12COCCN(C1)c1nc(OC[C@@]34CCCN3C[C@H](F)C4)nc3c(F)c(ncc13)-c1cc(O)cc3ccc(F)c(c13)CCOC(=O)O2` [Example 345, (16S)-23,32-difluoro-8-(((2R,7aS)-2-fluorotetrahydro-1H-pyrrolo[1,2-a]pyrrol-7a(5H)-yl)methoxy)-28-hydroxy-16-methyl-14,17,19-trioxa-3,7,9,11-tetraazahexacyclo[20.7.1.1~2,6~.1~11,16~.0~5,10~.0~26,30~]dotriaconta-1(30),2(32),3,5,7,9,22,24,26,28-decaen-18-one], the IC50 amounted to 3 nM in assay [1] (setting [4]); 1 nM in assay [2] (setting [5]); 0.7 nM in assay [3] (setting [6]); 16 nM with AsPC-1 cells (AsPC-1, 72 h).
For `C[C@@]12COCCN(C1)c1nc(OC[C@@]34CCCN3C[C@H](F)C4)nc3cc(ncc13)-c1c(c(Cl)cc3[nH]ncc13)CCCOC(=O)O2` [Example 346, (26S)-18-chloro-4-(((2R,7aS)-2-fluorotetrahydro-1H-pyrrolo[1,2-a]pyrrol-7a(5H)-yl)methoxy)-26-methyl-23,25,28-trioxa-1,3,5,9,14,15-hexaazahexacyclo[24.4.1.1~6,10~.0~2,7~.0~11,19~.0~12,16~]dotriaconta-2,4,6(32),7,9,11,13,16,18-nonaen-24-one], in that order: 5 nM, 2 nM, 13.4 nM and 297 nM.
Turning to `C[C@@H]1CN(c2nc3c4cnc(c(F)c4n2)-c2c(c(Cl)cc4[nH]ncc24)CCCOC(=O)O[C@@H]2COCCN3C2)CCN1` [Example 348, (26S)-18-chloro-32-fluoro-4-((3R)-3-methyl-1-piperazinyl)-23,25,28-trioxa-1,3,5,9,14,15-hexaazahexacyclo[24.4.1.1~6,10~.0~2,7~.0~11,19~.0~12,16~]dotriaconta-2,4,6,8,10(32),11,13,16,18-nonaen-24-one], the IC50 in assay [1] (setting [4]) worked out at 13 nM; in assay [2] (setting [5]), 4 nM; in assay [3] (setting [6]), 298 nM; in the assay on AsPC-1 cells (AsPC-1, 72 h), 2220 nM.
Regarding `Cc1cc2[nH]ncc2c2c1CCOC(=O)O[C@H]1C[C@]3(CCCN(C3)c3nc(OC[C@@]45CCCN4C[C@H](F)C5)nc4cc-2ncc34)C1` [Example 349, (1R,3S)-24-(((2R,7aS)-2-fluorotetrahydro-1H-pyrrolo[1,2-a]pyrrol-7a(5H)-yl)methoxy)-10-methyl-4,6-dioxa-13,14,19,23,25,27-hexaazaheptacyclo[25.3.1.1~1,3~.1~18,22~.0~9,17~.0~12,16~.0~21,26~]tritriaconta-9,11,14,16,18(32),19,21,23,25-nonaen-5-one], the IC50 came to 5 nM in assay [1] (setting [4]); 2 nM in assay [2] (setting [5]); 30.4 nM in assay [3] (setting [6]); 645 nM with AsPC-1 cells (AsPC-1, 72 h).
Turning to `O=C1OCCc2c(Cl)cc3[nH]ncc3c2-c2ncc3c(nc(OC[C@@]45CCCN4C[C@@H](F)C5)nc3c2F)N2CCC[C@]3(C2)C[C@H](C3)O1` [Example 350, (1R,3S)-10-chloro-32-fluoro-24-(((2S,7aS)-2-fluorotetrahydro-1H-pyrrolo[1,2-a]pyrrol-7a(5H)-yl)methoxy)-4,6-dioxa-13,14,19,23,25,27-hexaazaheptacyclo[25.3.1.1~1,3~.1~18,22~.0~9,17~.0~12,16~.0~21,26~]tritriaconta-9,11,14,16,18(32),19,21,23,25-nonaen-5-one], the IC50 in assay [1] (setting [4]) was found to be 6 nM; in assay [2] (setting [5]), 3 nM; in assay [3] (setting [6]) it was 58.1 nM; in the assay on AsPC-1 cells (AsPC-1, 72 h), 545 nM.
For `O=C1OCCCc2c(Cl)cc(O)cc2-c2ncc3c(nc(OC[C@@]45CCCN4C[C@H](F)C5)nc3c2F)N2CCOC[C@H](C2)O1` [Example 355, (23S)-15-chloro-29-fluoro-4-(((2R,7aS)-2-fluorotetrahydro-1H-pyrrolo[1,2-a]pyrrol-7a(5H)-yl)methoxy)-13-hydroxy-20,22,25-trioxa-1,3,5,9-tetraazapentacyclo[21.4.1.1~6,10~.0~2,7~.0~11,16~]nonacosa-2,4,6,8,10(29),11,13,15-octaen-21-one], the IC50 in assay [1] (setting [4]) was found to be 2 nM; in assay [2] (setting [5]), 1 nM; in assay [3] (setting [6]), 5.2 nM; in the assay on AsPC-1 cells (AsPC-1, 72 h), 82 nM.
Consider `O=C1OCCc2c(F)cc3[nH]ncc3c2-c2ncc3c(nc(OC[C@@]45CCCN4C[C@H](F)C5)nc3c2F)N2CCC[C@]3(C2)C[C@H](C3)O1` [Example 356, (1R,3S)-10,32-difluoro-24-(((2R,7aS)-2-fluorotetrahydro-1H-pyrrolo[1,2-a]pyrrol-7a(5H)-yl)methoxy)-4,6-dioxa-13,14,19,23,25,27-hexaazaheptacyclo[25.3.1.1~1,3~.1~18,22~.0~9,17~.0~12,16~.0~21,26~]tritriaconta-9,11,14,16,18(32),19,21,23,25-nonaen-5-one], for which the IC50 in assay [1] (setting [4]) came to 4 nM; in assay [2] (setting [5]), 3 nM; in assay [3] (setting [6]), 8.2 nM; in the assay on AsPC-1 cells (AsPC-1, 72 h) it was 94 nM.
Consider `O=C1OCCc2c(Cl)cc3[nH]ncc3c2-c2cc3nc(OC[C@@]45CCCN4C[C@H](F)C5)nc(c3nn2)N2CCC[C@]3(C2)C[C@H](C3)O1` [Example 357, (1R,3S)-10-chloro-24-(((2R,7aS)-2-fluorotetrahydro-1H-pyrrolo[1,2-a]pyrrol-7a(5H)-yl)methoxy)-4,6-dioxa-13,14,19,20,23,25,27-heptaazaheptacyclo[25.3.1.1~1,3~.1~18,22~.0~9,17~.0~12,16~.0~21,26~]tritriaconta-9,11,14,16,18(32),19,21,23,25-nonaen-5-one], for which the IC50 in assay [1] (setting [4]) came to 14 nM; in assay [2] (setting [5]), 10 nM; in assay [3] (setting [6]) it was 234 nM; in the assay with AsPC-1 cells (AsPC-1, 72 h), 1970 nM.
For `C#CCO[C@@H]1CN2CCC[C@@]2(COc2nc3c4cnc(c(F)c4n2)-c2c(c(Cl)cc4[nH]ncc24)CCCOC(=O)O[C@@H]2COCCN3C2)C1` [Example 369, (26S)-18-Chloro-32-fluoro-4-(((2S,7aS)-2-(2-propyn-1-yloxy)tetrahydro-1H-pyrrolo[1,2-a]pyrrol-7a(5H)-yl)methoxy)-23,25,28-trioxa-1,3,5,9,14,15 hexaazahexacyclo[24.4.1.1˜6,10˜.0˜2,7˜.0˜11,19˜.0˜12,16˜]dotriaconta-2,4,6,8,10(32),11,13,16,18-nonaen-24-one] the same measures were 13 nM, 8 nM, 363 nM and 5000 nM.
Take `Fc1c2ncc3c(nc(OC[C@@]45CCCN4C[C@H](F)C5)nc13)N1CCO[C@@H](Cc3ncc(o3)CCc3c(Cl)cc4[nH]ncc4c3-2)C1` [Example 374]: the IC50 in assay [1] (setting [7]) came to 5 nM; in assay [2] (setting [8]) it was 4 nM; in assay [3] (setting [9]), 32.7 nM; in the assay with AsPC-1 cells (AsPC-1 cells (G12D), 72 h) it was 127 nM.
With `Fc1c2ncc3c(nc(OC[C@@]45CCCN4C[C@H](F)C5)nc13)N1CCO[C@H](C1)c1coc(n1)CCCc1c(Cl)cc3[nH]ncc3c1-2` [Example 390, (18R)-9-chloro-31-fluoro-25-(((2R,7aS)-2-fluorotetrahydro-1H-pyrrolo[1,2-a]pyrrol-7a(5H)-yl)methoxy)-15,19-dioxa-5,6,22,24,26,30,33-heptaazaheptacyclo[25.3.1.1~14,17~.1~18,22~.0~2,10~.0~3,7~.0~23,28~]tritriaconta-1(31),2,4,7,9,14(33),16,23,25,27,29-undecaene], the IC50 in assay [1] (setting [7]) came out at 5 nM; in assay [2] (setting [8]) it was 3 nM; in assay [3] (setting [9]), 9.5 nM; in the assay with AsPC-1 cells (AsPC-1 cells (G12D), 72 h), 74 nM.
